Results reported in patent publication US20250313563A1, “GLYCOGEN SYNTHASE KINASE 3 INHIBITORS AND USES THEREOF” (The Broad Institute, Inc., priority 2022, published 2025).
Read-outs that look alike come from different tables or passages of the source.

Key:
[1] = molecular target: GSK3b (GST-full length GSK3b) (Homo sapiens (Human), UniProt P49841); assay: GSK3b TR-FRET kinase assay; assay type: biochemical
Method in brief: (§1)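 Compound preincubated 30 min, then 1 nM GST-full-length GSK3α or GSK3b run 100 min at ambient temperature with 200 nM biotinylated, S645-prephosphorylated glycogen synthase 631-650 peptide in Tris pH 7.5, MgCl2, DTT, BSA, 1% DMSO. ATP 4 μM (α) or 2 μM (β), or 1 mM. EDTA-quenched; Tb-anti-pSer641/streptavidin-d2 TR-FRET 665/615 ratio gave IC50.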

[2] = molecular target: GSK3α (GST-full length GSK3α) (Homo sapiens (Human), UniProt P49840); assay: GSK3α TR-FRET kinase assay; assay type: biochemical
Sequence of GSK3α (GST-full length GSK3α) (P49840 whole entry): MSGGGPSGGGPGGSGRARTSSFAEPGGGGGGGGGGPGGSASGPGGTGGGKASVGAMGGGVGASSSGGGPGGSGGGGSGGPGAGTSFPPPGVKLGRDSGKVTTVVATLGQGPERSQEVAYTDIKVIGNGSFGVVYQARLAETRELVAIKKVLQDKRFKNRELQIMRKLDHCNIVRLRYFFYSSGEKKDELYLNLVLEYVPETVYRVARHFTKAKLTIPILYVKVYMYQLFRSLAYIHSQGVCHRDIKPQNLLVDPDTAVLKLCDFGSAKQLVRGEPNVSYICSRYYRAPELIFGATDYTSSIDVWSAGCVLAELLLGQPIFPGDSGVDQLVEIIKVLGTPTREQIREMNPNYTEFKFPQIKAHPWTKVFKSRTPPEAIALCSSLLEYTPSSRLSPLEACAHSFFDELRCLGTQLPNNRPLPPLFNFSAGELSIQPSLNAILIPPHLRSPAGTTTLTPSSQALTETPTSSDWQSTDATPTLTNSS
Method in brief: as §1

[3] = 1 nM GSK3b, 2 μM ATP, 30 minute preincubation, Table 16, read-out: GSK3-B TR-FRET BIOCHEMICAL (TR-FRET)
[4] = GSK3-B (TR-FRET 1 mM ATP), GMean, IC50, 1 mM ATP, geometric mean
[5] = 1 nM GSK3α, 4 μM ATP, 30 minute preincubation, Table 16, read-out: GSK3-A TR-FRET BIOCHEMICAL (TR-FRET)
[6] = GSK3-A (TR-FRET 1 mM ATP), GMean, IC50, 1 mM ATP, geometric mean
[7] = 1 nM GSK3b, 2 μM ATP, 30 minute preincubation, Table 16, read-out: GSK3-B TR-FRET BIOCHEMICAL (TR-FRET), IC50
[8] = 1 nM GSK3α, 4 μM ATP, 30 minute preincubation, Table 16, read-out: GSK3-A TR-FRET BIOCHEMICAL (TR-FRET), IC50
[9] = 1 nM GSK3b, 2 μM ATP, 30 minute preincubation, read-out: GSK3-B TR-FRET BIOCHEMICAL (TR-FRET), IC50
[10] = 1 nM GSK3α, 4 μM ATP, 30 minute preincubation, read-out: GSK3-A TR-FRET BIOCHEMICAL (TR-FRET), IC50

Sequence of GSK3b (GST-full length GSK3b) (P49841 whole entry): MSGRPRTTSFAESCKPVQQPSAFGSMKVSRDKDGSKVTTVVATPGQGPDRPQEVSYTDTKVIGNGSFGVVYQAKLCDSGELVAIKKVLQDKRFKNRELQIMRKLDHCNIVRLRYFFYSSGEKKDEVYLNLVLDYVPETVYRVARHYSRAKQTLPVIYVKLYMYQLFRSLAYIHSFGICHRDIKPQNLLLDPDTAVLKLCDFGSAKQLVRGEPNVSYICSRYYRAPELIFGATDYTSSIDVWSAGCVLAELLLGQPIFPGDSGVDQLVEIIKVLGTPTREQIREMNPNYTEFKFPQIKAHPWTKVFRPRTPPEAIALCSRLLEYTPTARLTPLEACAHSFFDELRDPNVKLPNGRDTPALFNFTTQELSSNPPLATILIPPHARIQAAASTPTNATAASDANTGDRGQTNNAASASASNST

Structure (SMILES)	IC50 [1, 3] [nM]	IC50 [2, 5] [nM]	IC50 [1, 7] [nM]	IC50 [2, 8] [nM]	also measured
CC1(C)CC(=O)C2=C(C1)Nc1n[nH]cc1[C@]21C[C@@H](c2ccncc2)C1 [Compound 889665]	≤ 100	≤ 100	–	–	IC50 [1, 4]: 100 to 1000 nM; IC50 [2, 6]: ≤ 100 nM
CCC1(c2cccc(N(C(C)=O)C(C)C)c2)C2=C(CC(C)(C)CC2=O)Nc2n[nH]cc21 (stereo not shown) [Compound 893305]	–	–	≤ 100	≤ 100	–
CCC1(c2cccc(N(CCOC)C(C)=O)c2)C2=C(CC(C)(C)CC2=O)Nc2n[nH]cc21 (stereo not shown) [Compound 893306]	–	–	≤ 100	≤ 100	–
O=C1CC2(CCCCC2)CC2=C1C1(CCOCC1)c1c[nH]nc1N2 [Compound 893307]	100 to 1000	≤ 100	–	–	–
O=C1CC2(CCCC2)CC2=C1C1(CCOCC1)c1c[nH]nc1N2 [Compound 893308]	100 to 1000	≤ 100	–	–	–
O=C1CC(c2ccccc2)CC2=C1C1(CCOCC1)c1c[nH]nc1N2 (stereo not shown) [Compound 893309]	–	–	1000 to 5000	100 to 1000	–
COc1ccccc1S(=O)(=O)N1CCC2(CC1)C1=C(CC(C)(C)CC1=O)Nc1n[nH]cc12 [Compound 893310]	≤ 100	≤ 100	–	–	IC50 [1, 4]: 100 to 1000 nM; IC50 [2, 6]: ≤ 100 nM
CC1(C)CC(=O)C2=C(C1)Nc1n[nH]cc1C21CCN(S(=O)(=O)c2ccc(F)cc2)CC1 [Compound 893311]	≤ 100	≤ 100	–	–	IC50 [1, 4]: 1000 to 5000 nM; IC50 [2, 6]: 100 to 1000 nM
CC1(C)CC(=O)C2=C(C1)Nc1n[nH]cc1C21CCC2(CC2)CC1 [Compound 893312]	–	–	–	–	IC50 [1, 9]: ≤ 100 nM; IC50 [2, 10]: ≤ 100 nM
CN1CCCC2(CC1)C1=C(CC(C)(C)CC1=O)Nc1n[nH]cc12 (stereo not shown) [Compound 893313]	–	–	> 5000	> 5000	–
CC(=O)N1CC2(C1)C1=C(CC(C)(C)CC1=O)Nc1n[nH]cc12 [Compound 893314]	–	–	> 5000	1000 to 5000	–
CC1(C)CC(=O)C2=C(C1)Nc1n[nH]cc1C21CN(C(=O)c2ccccc2)C1 [Compound 893315]	–	–	> 5000	> 5000	–
C[C@@H]1C[C@H](C)C(=O)C2=C1Nc1n[nH]cc1C21CCOCC1 [Compound 893316]	–	–	100 to 1000	≤ 100	–
C[C@H]1CCC[C@]2(C1)C1=C(CC(C)(C)CC1=O)Nc1n[nH]cc12 [Compound 893318]	100 to 1000	100 to 1000	–	–	–
C[C@H]1CCC[C@@]2(C1)C1=C(CC(C)(C)CC1=O)Nc1n[nH]cc12 [Compound 893319]	100 to 1000	100 to 1000	–	–	–
C[C@@H]1CCC[C@@]2(C1)C1=C(CC(C)(C)CC1=O)Nc1n[nH]cc12 [Compound 893320]	≤ 100	≤ 100	–	–	–
CCC1(c2cc(-c3ccncc3)ccc2C)C2=C(CC(C)(C)CC2=O)Nc2n[nH]cc21 (stereo not shown) [Compound 893323]	–	–	100 to 1000	≤ 100	IC50 ([1]; read-out: GSK3-B (TR-FRET 1 mM ATP), GMean, IC50, 1 mM ATP, geometric mean): > 5000 nM; IC50 ([2]; read-out: GSK3-A (TR-FRET 1 mM ATP), GMean, IC50, 1 mM ATP, geometric mean): 100 to 1000 nM
CC[C@]1(c2cc(-c3ccncc3)ccc2F)C2=C(CC(C)(C)CC2=O)Nc2n[nH]cc21 [Compound 893324]	–	–	> 5000	1000 to 5000	–
CC1(C)CC(=O)C2=C(C1)Nc1n[nH]cc1C21CCS(=O)(=O)CC1 [Compound 896013]	100 to 1000	100 to 1000	–	–	–
CCC1(c2cccc(C(F)(F)F)c2)C2=C(CCN(Cc3ccccc3)C2=O)Nc2n[nH]cc21 (stereo not shown) [Compound 897749]	–	–	–	–	IC50 [1, 9]: > 5000 nM; IC50 [2, 10]: 100 to 1000 nM
C[C@@H]1CC[C@]2(C1)C1=C(CC(C)(C)CC1=O)Nc1n[nH]cc12 [Compound 897750]	≤ 100	≤ 100	–	–	–
C[C@H]1CC[C@@]2(C1)C1=C(CC(C)(C)CC1=O)Nc1n[nH]cc12 [Compound 897751]	100 to 1000	≤ 100	–	–	–

Structure (SMILES)	IC50 [1, 3] [nM]	IC50 [2, 5] [nM]	IC50 [1, 7] [nM]	IC50 [2, 8] [nM]	also measured
CC1(C)CC(=O)C2=C(C1)Nc1n[nH]cc1C21Cc2ccccc2C1 [Compound 897752]	100 to 1000	≤ 100	–	–	–
CC1(C)CC(=O)C2=C(C1)Nc1n[nH]cc1[C@@]21CCOC2(CCC2)C1 [Compound 897755]	–	–	–	–	IC50 [1, 9]: 1000 to 5000 nM; IC50 [2, 10]: 1000 to 5000 nM
CC1(C)CC(=O)C2=C(C1)Nc1n[nH]cc1[C@]21CCOC2(CCC2)C1 [Compound 897756]	–	–	–	–	IC50 [1, 9]: 100 to 1000 nM; IC50 [2, 10]: 100 to 1000 nM
C[C@@H]1C[C@]2(CCO1)C1=C(CC(C)(C)CC1=O)Nc1n[nH]cc12 [Compound 899559]	–	–	1000 to 5000	100 to 1000	–
C[C@H]1C[C@@]2(CCO1)C1=C(CC(C)(C)CC1=O)Nc1n[nH]cc12 [Compound 899560]	1000 to 5000	100 to 1000	–	–	–
CC1(C(F)(F)F)CC(=O)C2=C(C1)Nc1n[nH]cc1C21CCOCC1 (stereo not shown) [Compound 901458]	100 to 1000	100 to 1000	–	–	–
O=C1C2=C(Nc3n[nH]cc3C23CCOCC3)C2CCC1C2 (stereo not shown) [Compound 901464]	100 to 1000	100 to 1000	–	–	–
CC1(C)CC(=O)C2=C(C1)Nc1n[nH]cc1C21CCN(S(=O)(=O)c2ccccc2F)CC1 [Compound 901465]	≤ 100	≤ 100	–	–	IC50 [1, 4]: 100 to 1000 nM; IC50 [2, 6]: ≤ 100 nM
CC1(C)CC(=O)C2=C(C1)Nc1n[nH]cc1C21CCN(S(=O)(=O)c2cccc(F)c2)CC1 [Compound 901466]	≤ 100	≤ 100	–	–	–
Cn1cc(S(=O)(=O)N2CCC3(CC2)C2=C(CC(C)(C)CC2=O)Nc2n[nH]cc23)cn1 [Compound 901467]	≤ 100	≤ 100	–	–	IC50 [1, 4]: 1000 to 5000 nM; IC50 [2, 6]: 100 to 1000 nM
COc1cccc(S(=O)(=O)N2CCC3(CC2)C2=C(CC(C)(C)CC2=O)Nc2n[nH]cc23)c1 [Compound 901468]	≤ 100	≤ 100	–	–	IC50 [1, 4]: 1000 to 5000 nM; IC50 [2, 6]: 100 to 1000 nM
COc1ccc(S(=O)(=O)N2CCC3(CC2)C2=C(CC(C)(C)CC2=O)Nc2n[nH]cc23)cc1 [Compound 901469]	–	–	–	–	IC50 [1, 4]: 100 to 1000 nM; IC50 [2, 6]: 100 to 1000 nM
CC1(C)CC(=O)C2=C(C1)Nc1n[nH]cc1C21CCN(S(=O)(=O)C2CC2)CC1 [Compound 901470]	≤ 100	≤ 100	–	–	IC50 [1, 4]: 100 to 1000 nM; IC50 [2, 6]: 100 to 1000 nM
Cn1ccc(S(=O)(=O)N2CCC3(CC2)C2=C(CC(C)(C)CC2=O)Nc2n[nH]cc23)n1 [Compound 901471]	≤ 100	≤ 100	–	–	IC50 [1, 4]: 1000 to 5000 nM; IC50 [2, 6]: 100 to 1000 nM
CO[C@H]1C[C@@]2(C1)C1=C(CC(C)(C)CC1=O)Nc1n[nH]cc12 [Compound 901472]	–	–	> 5000	> 5000	–
CO[C@H]1C[C@]2(C1)C1=C(CC(C)(C)CC1=O)Nc1n[nH]cc12 [Compound 901473]	–	–	> 5000	> 5000	–
CC1(C)CC(=O)C2=C(C1)Nc1n[nH]cc1C21CN(S(=O)(=O)c2ccccc2)C1 [Compound 901474]	≤ 100	≤ 100	–	–	–
O=C1C[C@@]2(CCOC2)CC2=C1C1(CCOCC1)c1c[nH]nc1N2 [Compound 901475]	100 to 1000	100 to 1000	–	–	–
O=C1C[C@]2(CCOC2)CC2=C1C1(CCOCC1)c1c[nH]nc1N2 [Compound 901476]	100 to 1000	100 to 1000	–	–	–
O=C1C[C@H](C(F)(F)F)CC2=C1C1(CCOCC1)c1c[nH]nc1N2 [Compound 901477]	–	–	1000 to 5000	100 to 1000	–
O=C1C[C@@H](C(F)(F)F)CC2=C1C1(CCOCC1)c1c[nH]nc1N2 [Compound 901478]	–	–	100 to 1000	100 to 1000	–
CCC1(c2cccc(OC)c2)C2=C(CC(C)(C)CC2=O)Nc2n[nH]c(C(=O)OC)c21 (stereo not shown) [Compound 901480]	–	–	100 to 1000	≤ 100	–
